From the METLIN SMRT retention time set (Domingo-Almenara et al. 2019) come the findings set out here.

The data set is described as follows: gradient 5% acetonitrile 3 min, to 50% in 2 min, to 85% in 15 min, held 3 min, 100 µL/min. Conditions: column: Zorbax Extend-C18 2.1 x 50 mm; eluents: water / acetonitrile, 0.1% formic acid. The method in brief:
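Retention times of pure standards were taken from adduct peaks that were selected by computer and manually inspected. Over 3 months, mixtures of ~100 molecules were run by HPLC–quadrupole time-of-flight mass spectrometry in positive and negative ionization mode. The Zorbax Extend-C18 column (2.1 × 50 mm, 1.8 μm) ran at 100 μL/min in water and acetonitrile, each containing 0.1% formic acid, with 40 μL dead volume and 900 μL dwell volume.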
As to `C[C@@H]1O[C@@H](O[C@H]2C[C@@H](O)[C@]3(CO)[C@@H]4C(CC[C@]3(O)C2)[C@@]2(O)CC[C@H](C3COC(=O)C3)[C@@]2(C)C[C@H]4O)[C@H](O)[C@H](O)[C@H]1O` (stereo partly drawn), the RP-LC retention time worked out at 602 s. The result for `COc1cc([C@@H]2c3cc4c(cc3[C@H](O)[C@@H](CO)[C@@H]2C(=O)N2CCN(c3ccc(F)cc3)CC2)OCO4)cc(OC)c1OC` reads 720 s; that for `CCCN1C(=O)COc2ccc(-c3noc(COc4cccc(C)c4)n3)cc21`, 1170 s.

For the compound `O=C(Cn1ccc2ccccc21)NCc1n[nH]c(=O)c2ccccc12`, the RP-LC retention time stood at 657 s.

Consider `COc1ccc(-n2c(=O)n(C)c(=O)c3cc(C(=O)NCc4cccc(OC)c4)cnc32)cc1`, for which the RP-LC retention time turned out to be 833 s. As to `CCc1nc(N)n(CC(=O)Nc2ccc(C)c(C)c2)c(=O)c1C`, the RP-LC retention time amounted to 650 s.

`CCCCN1CCN(C(=O)CN2CCN(Cc3ccc(F)cc3Cl)C2=O)CC1` yielded an RP-LC retention time of 641 s. For `CCCn1cc(S(=O)(=O)Nc2ccccc2Cl)c2cccnc21`, the RP-LC retention time was 914 s. The result for `Cc1nc(-c2noc(-c3ccccc3)n2)cn1CC(=O)NCc1ccccc1F` reads 810 s. Compound `O=C(NC1CCCCC1)c1nnc(-c2ccc(S(=O)(=O)N3CCCCC3)cc2)o1` returned an RP-LC retention time of 1040 s. Regarding `O=S(=O)(c1ccc2c(c1)CCCC2)N1CCN(Cc2nnnn2-c2ccccc2)CC1`, the RP-LC retention time came to 991 s. The result for `CC(C)n1c(=O)oc2cc(-c3noc(-c4ccc(Br)cc4)n3)ccc21` reads 1350 s; that for `CCOC(=O)c1cc(S(=O)(=O)N2CCCC2C(=O)N(CC)c2cccc(C)c2)cn1C` (stereo not drawn), 943 s; that for `C#CCOCC1CN(c2ccccc2)C(=O)O1` (stereo not drawn), 833 s. The result for `Cc1cccc(C)c1NC(=O)N1CCC(c2cc(=O)n3nccc3n2C)CC1` reads 635 s; that for `O=C(CN1CCN(Cc2ccccc2F)C1=O)NCc1ccc(N2CCCC2)cc1`, 783 s. Then `Cc1ccc(NC(=O)C2C(=O)N(CCO)C3(C)CC2c2ccccc2O3)cc1` (stereo not drawn), with 727 s. `COc1ccc(S(=O)(=O)N2CCc3nn(CC4CC4)c(=O)n3CC2)cc1` showed an RP-LC retention time of 744 s. Turning to `CC(C)n1cnc2cc(CNC(=O)c3cccc(C(F)(F)F)c3)ccc21`, the RP-LC retention time was found to be 675 s.

The compound `O=C(NCc1ccccc1)N1CCCC1c1nc(-c2ccc(F)cc2F)no1` (stereo not drawn) had an RP-LC retention time of 862 s. `CCCN1CCN(C(=O)c2sc3ncn(CC(=O)N4CCCCC4C)c(=O)c3c2C)CC1` (stereo not drawn) showed an RP-LC retention time of 596 s. Then `CC(C)CCn1c(=O)oc2ccccc21`, with 928 s; and `O=S(=O)(c1cccc2cccnc12)N1CC(c2noc(C3CCCN3CC3CC3)n2)C1` (stereo not drawn), with 634 s; and `COc1ccc(NC(=O)CN2C(=O)C(C)(C)c3ccccc32)cc1`, with 826 s. In the case of `CN(C)c1ccc(NC(=O)Cn2cccc2-c2nc(-c3ccc4c(c3)OCO4)no2)cc1`, the RP-LC retention time amounted to 752 s.

As to `CCOC(=O)C(CC)n1nc2ccc(S(=O)(=O)N3CCC(C)CC3)cn2c1=O` (stereo not drawn), the RP-LC retention time amounted to 990 s. For the compound `CCOc1ccccc1-c1nn2c(-c3cccnc3)nnc2s1`, the RP-LC retention time was found to be 1040 s. `CCN1CCCC1CNC(=O)c1nc(-c2ccc3c(c2)OCC(=O)N3C)no1` (stereo not drawn) yielded an RP-LC retention time of 617 s. The result for `Cc1cccc(C(=O)Nc2nc(-c3ccc4c(c3)N(C)C(=O)CO4)cs2)c1` reads 985 s. The result for `CNC(=O)[C@@H]1C[C@H](Oc2ccccc2)CN1C(=O)c1n[nH]c(=O)c2ccccc12` reads 650 s; that for `Cc1nc(NC2CCCCC2)sc1C(=O)Nc1ccc(F)cc1F`, 855 s. Then `CCOc1ccc(CNC(=O)c2cc3c(-c4cccs4)nn(-c4ccccc4)c3n2CC)cc1`, with 1240 s; and `Cc1cccc(-c2ncccc2CNS(=O)(=O)c2cccc(C#N)c2)c1`, with 700 s. `O=c1[nH]cc(Cl)cc1Cl` showed an RP-LC retention time of 662 s.

In turn, `CN1CCCc2cc(C(=O)NCc3cccnc3)sc21` showed an RP-LC retention time of 592 s. Then `CC(C)Cc1cc(-c2nn3c(Cc4ccc(Cl)cc4)nnc3s2)n[nH]1`, with 1010 s.

`Cc1ccccc1-c1noc(-c2cccn(CC(=O)NC3CCCC3)c2=O)n1` gave an RP-LC retention time of 832 s. Then `COc1ccc(Cl)cc1NC(=O)NCCc1nc2cccnc2n1CC(C)C`, with 770 s. The compound `Cc1cccn2cc(C(=O)N3CCN(c4ccc(Cl)cc4)CC3)nc12` registered an RP-LC retention time of 946 s. The result for `O=C(NC1CCN(Cc2ccccc2)CC1)C1CCCN(c2ncnc3c2oc2ccccc23)C1` (stereo not drawn) reads 604 s; that for `Cc1cccc(CNC(=O)C2(C)Cn3cnc(C(=O)N4CCOCC4)c3C(=O)N2C2CC2)c1` (stereo not drawn), 618 s. `CCCn1ccc2oc(C)c(C(=O)NCc3ccc(Cl)cc3)c2c1=O` showed an RP-LC retention time of 814 s. Then `COc1ccc2c(c1)C1(CCN(C(=O)c3ccc(C)c(F)c3)C1)C(=O)N2` (stereo not drawn), with 745 s. On to `COc1ccc(NC(=O)N2CCCC2c2nc(-c3ccc(F)cc3F)no2)c(OC)c1` (stereo not drawn), for which the RP-LC retention time came out at 940 s.

The compound `Cc1nn(CC(=O)N2CCC3(CC2)OCCO3)c(=O)c2nc(-c3ccccc3)sc12` registered an RP-LC retention time of 970 s. On to `COc1ccc(-c2nnc(COc3ccc(NC(=O)c4cccnc4SC)cc3)o2)cc1`, for which the RP-LC retention time was 893 s. The result for `COCCCNC(=O)C1CCCN(C(=O)c2cccc(C(F)(F)F)c2)C1` (stereo not drawn) reads 698 s. Then `Cc1noc(CNC(=O)C2CCN(C(=O)c3cc(-c4ccccc4)n[nH]3)CC2)n1`, with 610 s. The result for `O=C(NCc1ccc2c(c1)OCO2)C1COC2(CCCCC2)N1C(=O)c1cccc(F)c1` (stereo not drawn) reads 845 s; that for `Fc1ccccc1-c1noc(Cc2nnc(-c3ccc(Cl)cc3)o2)n1`, 1100 s; that for `CC(C)C(=O)Nc1ccc2c(c1)nc(CN1CCOCC1)n2C(C)C`, 607 s. On to `O=C1N(c2ccc(F)cc2)c2ncccc2S(=O)(=O)N1Cc1cccc(F)c1`, for which the RP-LC retention time is 1030 s.

Consider `CCC(C)C(NC(=O)c1cccc(F)c1)C(=O)Nc1nc2ccccc2[nH]1` (stereo not drawn), for which the RP-LC retention time was determined as 748 s.

`CS(=O)(=O)N1CCN(C(=O)c2coc(NC(=O)c3ccccc3)n2)CC1` showed an RP-LC retention time of 608 s. The result for `COc1ccc(CN2CC[C@@H]3CN(S(C)(=O)=O)[C@@H]3C2)cc1C` reads 617 s; that for `Cc1ccc(CNC(=O)C2(C)CN(S(=O)(=O)c3ccccc3)CC(=O)N2c2cccc(F)c2)cc1` (stereo not drawn), 962 s; that for `Cc1ccccc1-c1noc(Cn2cnc3c(oc4ccccc43)c2=O)n1`, 986 s. Compound `CCCNC(=O)C1CCCN1S(=O)(=O)c1cc(C(=O)OCC)n(C)c1` (stereo not drawn) yielded an RP-LC retention time of 762 s. The result for `COC(=O)c1cnn(C(=O)c2ccc(OC)cc2)c1N` reads 829 s; that for `O=C1COc2cc(S(=O)(=O)N3CCCC3C(=O)NCc3ccc(F)cc3)c(Cl)cc2N1` (stereo not drawn), 745 s. Then `O=C(Nc1nccn(-c2ccc(F)c(Cl)c2)c1=O)c1ccc2c(c1)OCO2`, with 802 s. Then `CCOCC(=O)Nc1cccc(OCc2nnc(-c3ccc(OC)cc3)o2)c1`, with 830 s.

`O=C(Cn1ncc2c(c1=O)N(C1CC1)C(=O)CS2)N1CCCc2ccccc21` had an RP-LC retention time of 745 s. The result for `O=C(NCC1CCCCC1)C1(CCO)CCN(c2ncccn2)C1` (stereo not drawn) reads 629 s; that for `O=C(Nc1ccc2c(c1)OCCO2)c1cc2n(n1)CCCN(Cc1ccc(F)cc1)C2=O`, 863 s; that for `Cc1cccc(N2CCN(Cc3nc(-c4ccc(N5CCCC(C)C5)nc4)no3)CC2)c1` (stereo not drawn), 1100 s. Then `COc1cc(-c2cccc(Cl)c2)nc2ccc(NC(=O)c3ccco3)cc12`, with 790 s; and `Cc1ccccc1Oc1nccnc1N1CCC(C(=O)NC(C)CCc2ccccc2)CC1` (stereo not drawn), with 1120 s.

For `Cc1ccc2nc(N3CCN(C)CC3)c(-c3noc(C)n3)cc2c1`, the RP-LC retention time came out at 645 s. The result for `Cc1ccc(-c2noc(-c3ccccc3S(=O)(=O)N3CCN(c4ccccn4)CC3)n2)cc1` reads 862 s. Then `O=C(c1cn2cc(Cl)ccc2n1)N1CCN(c2ccc(Cl)cc2)CC1`, with 899 s; and `COc1ccc(NC(=O)C2CCc3sc(C(=O)N(C)C)cc3C2)cc1` (stereo not drawn), with 663 s. In turn, `CCc1ccc2nc(C)cc(C(=O)NC3CC3)c2c1` returned an RP-LC retention time of 605 s. Then `CCc1nc2cccnc2n1CCN1CCN(C(=O)Nc2ccc3c(c2)OCO3)CC1`, with 579 s; and `CCCN1C(=O)COc2ccc(-c3noc(Cc4cc(OC)cc(OC)c4)n3)cc21`, with 1080 s; and `CC(C)c1ccc(N2C(=O)CN(Cc3ccccc3)C3CS(=O)(=O)CC32)cc1` (stereo not drawn), with 854 s. The result for `Cc1cc(N2CCN(C)CC2)nc2ccc(NC(=O)Nc3ccc(Cl)cc3)cc12` reads 610 s; that for `O=C(Cc1c[nH]c2ccccc12)N1CCC(Oc2ccc(-c3noc(C4CC4)n3)cc2)C1` (stereo not drawn), 964 s.
